From ChEMBL document CHEMBL1687699, “Discovery of Dual VEGFR-2 and Tubulin Inhibitors with in Vivo Efficacy” (ACS Med Chem Lett, 2010) come the findings set out here.

In data set [1] the target is T1, Vascular endothelial growth factor receptor 2 (Homo sapiens, UniProt P35968). The data set can be described thus: Inhibition of VEGFR2 expressed HEK293 cells. Type of data set: cell-based.
Data set [2] deals with T1, Vascular endothelial growth factor receptor 2. The data set can be described thus: Inhibition of VEGFR-2 kinase assessed as phosphorylated level of pGAT-biotin peptide preincubated for 5 to 10 mins before addition of substrate measured after 2 hrs by HTRF assay. In general terms: TR-FRET usually uses a lanthanide donor and a delayed reading to cut background.
The nature of data set [3]: Inhibition of bovine tubulin polymerization after 30 mins by turbidity assay. On the set-up: species or system Bos taurus.
Another data set concerns A-431. The data set can be described thus: cells. The conditions noted are these: Homo sapiens, A-431, 24 h.
For data set [4], the target named is Serine/threonine-protein kinase PLK1 (Homo sapiens) (UniProt P53350). As to the kind of experiment: Inhibition of polo-like kinase 1.
Data set [5] has as its target T2, Aurora kinase A (Homo sapiens) (UniProt O14965).
T2 sequence (whole entry): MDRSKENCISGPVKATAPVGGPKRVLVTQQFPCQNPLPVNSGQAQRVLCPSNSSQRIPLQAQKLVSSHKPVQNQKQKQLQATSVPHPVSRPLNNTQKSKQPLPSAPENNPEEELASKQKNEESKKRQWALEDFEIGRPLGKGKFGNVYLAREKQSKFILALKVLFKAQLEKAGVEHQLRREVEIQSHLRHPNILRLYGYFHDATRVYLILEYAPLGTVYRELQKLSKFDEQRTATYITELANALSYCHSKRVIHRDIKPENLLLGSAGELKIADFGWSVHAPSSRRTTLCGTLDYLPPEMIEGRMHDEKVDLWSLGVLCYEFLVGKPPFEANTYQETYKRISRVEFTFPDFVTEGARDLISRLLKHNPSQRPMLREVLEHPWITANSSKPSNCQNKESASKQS
The data set can be described thus: Inhibition of Aurora A kinase.

The target of data set [6] is Cyclin-dependent kinase 1 (Homo sapiens) (UniProt P06493). The data set can be described thus: Inhibition of CDK1.
Data set [7] deals with Mus musculus. As to the kind of experiment: Toxicity in mouse assessed as abnormal pathology at 100 mg/kg, po administered once a week. Format: organism-based. On the set-up: dose 100 mg/kg, route oral. To be noted: in vivo.
Data set [8] deals with Mus musculus. As to the kind of experiment: Toxicity in mouse assessed as discomfort signs at 100 mg/kg, po administered once a week. Type of data set: organism-based. The arrangement: dose 100 mg/kg, route oral. The conditions noted are these: in vivo.
Data set [9] relates to Mus musculus. As to the kind of experiment: Toxicity in mouse assessed as body weight change at 100 mg/kg, po administered once a week. To be noted: in vivo. Type of data set: organism-based. On the set-up: dose 100 mg/kg, route oral.
Data set [10] is described as follows: Antitumor activity against human MDA-MB-435-LM2 cells xenografted in mouse assessed as tumor size at 100 mg/kg, po administered once a week measured on day 26 relative to control. Type of data set: functional.
Data set [11] has as its system Mus musculus. The data set can be described thus: Toxicity in mouse assessed as white blood cell depletion at 100 mg/kg administered once a week. Format: organism-based. The arrangement: dose 100 mg/kg. The conditions noted are these: in vivo.
Data set [12] deals with Mus musculus. As to the kind of experiment: Toxicity in mouse assessed as neuropathy at 100 mg/kg administered once a week. Format: organism-based. On the set-up: dose 100 mg/kg. To be noted: in vivo.
Data set [13] can be described thus: Toxicity in po dosed mouse. Type of data set: organism-based. To be noted: in vivo.
Data set [14] relates to Mus musculus. As to the kind of experiment: Toxicity in mouse assessed as inflamed intestine at 100 mg/kg, po administered once a week. Format: organism-based. The arrangement: dose 100 mg/kg, route oral. The conditions noted are these: in vivo.
The test system of data set [15] is Mus musculus. The data set can be described thus: Toxicity in mouse assessed as enlarged intestine at 100 mg/kg, po administered once a week. The arrangement: dose 100 mg/kg, route oral. To be noted: in vivo. Type of data set: organism-based.
Data set [16] has as its system Mus musculus. As to the kind of experiment: Toxicity in mouse assessed as distended stomach at 100 mg/kg, po administered once a week. The conditions noted are these: in vivo. Format: organism-based. The arrangement: dose 100 mg/kg, route oral.
Data set [17] deals with Mus musculus. As to the kind of experiment: Toxicity in mouse assessed as moribund at 100 mg/kg, po administered once a week measured on day 26. The arrangement: dose 100 mg/kg, route oral. The conditions noted are these: in vivo. Format: organism-based.

Each structure is given as a SMILES string. Active and inactive are the calls of the source. No cut-off for these calls is given here.

T1 sequence (P35968 whole entry): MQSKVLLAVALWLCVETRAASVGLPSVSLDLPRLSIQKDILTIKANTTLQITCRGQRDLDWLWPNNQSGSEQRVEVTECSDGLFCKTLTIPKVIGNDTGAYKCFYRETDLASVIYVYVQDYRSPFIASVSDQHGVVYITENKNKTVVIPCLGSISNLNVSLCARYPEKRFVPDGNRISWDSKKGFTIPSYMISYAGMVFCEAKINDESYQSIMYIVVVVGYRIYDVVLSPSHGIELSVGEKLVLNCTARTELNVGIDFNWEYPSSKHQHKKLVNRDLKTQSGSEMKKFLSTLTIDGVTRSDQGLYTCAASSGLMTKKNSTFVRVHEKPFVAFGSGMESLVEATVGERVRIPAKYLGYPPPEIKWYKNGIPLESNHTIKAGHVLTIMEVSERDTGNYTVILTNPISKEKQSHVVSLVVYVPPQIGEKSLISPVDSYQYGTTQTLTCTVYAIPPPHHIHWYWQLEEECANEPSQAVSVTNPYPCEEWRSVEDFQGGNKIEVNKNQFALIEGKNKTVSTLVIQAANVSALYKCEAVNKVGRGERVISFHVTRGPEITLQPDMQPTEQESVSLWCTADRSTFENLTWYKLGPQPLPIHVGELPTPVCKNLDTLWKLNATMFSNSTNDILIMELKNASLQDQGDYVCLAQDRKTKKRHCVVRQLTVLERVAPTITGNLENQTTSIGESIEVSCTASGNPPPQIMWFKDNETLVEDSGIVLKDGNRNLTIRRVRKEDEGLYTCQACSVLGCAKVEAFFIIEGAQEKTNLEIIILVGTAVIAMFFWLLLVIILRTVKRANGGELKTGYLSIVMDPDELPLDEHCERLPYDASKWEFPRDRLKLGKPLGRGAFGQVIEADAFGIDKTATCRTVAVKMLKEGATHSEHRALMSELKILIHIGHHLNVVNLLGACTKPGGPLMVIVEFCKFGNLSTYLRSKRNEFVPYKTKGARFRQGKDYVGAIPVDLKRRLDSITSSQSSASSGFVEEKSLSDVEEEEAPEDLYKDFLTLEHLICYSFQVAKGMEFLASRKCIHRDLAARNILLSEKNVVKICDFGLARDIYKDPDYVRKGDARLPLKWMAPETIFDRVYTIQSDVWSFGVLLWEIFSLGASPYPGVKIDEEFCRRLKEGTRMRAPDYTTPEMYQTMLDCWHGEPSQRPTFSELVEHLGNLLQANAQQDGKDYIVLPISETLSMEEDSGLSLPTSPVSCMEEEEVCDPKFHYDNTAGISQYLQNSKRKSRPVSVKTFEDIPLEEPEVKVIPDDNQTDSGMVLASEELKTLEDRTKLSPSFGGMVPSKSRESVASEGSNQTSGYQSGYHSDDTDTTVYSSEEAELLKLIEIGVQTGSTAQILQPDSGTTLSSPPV
Sequence of Cyclin-dependent kinase 1 (Homo sapiens) (P06493 whole entry, looked up): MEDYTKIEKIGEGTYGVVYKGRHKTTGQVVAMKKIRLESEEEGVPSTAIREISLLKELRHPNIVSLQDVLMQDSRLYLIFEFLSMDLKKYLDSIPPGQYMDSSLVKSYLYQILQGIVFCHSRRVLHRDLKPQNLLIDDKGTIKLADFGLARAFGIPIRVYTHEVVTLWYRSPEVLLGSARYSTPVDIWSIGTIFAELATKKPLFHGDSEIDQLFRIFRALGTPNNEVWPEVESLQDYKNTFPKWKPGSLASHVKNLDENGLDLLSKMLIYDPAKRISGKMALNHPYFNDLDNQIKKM
Sequence of Serine/threonine-protein kinase PLK1 (Homo sapiens) (P53350 whole entry): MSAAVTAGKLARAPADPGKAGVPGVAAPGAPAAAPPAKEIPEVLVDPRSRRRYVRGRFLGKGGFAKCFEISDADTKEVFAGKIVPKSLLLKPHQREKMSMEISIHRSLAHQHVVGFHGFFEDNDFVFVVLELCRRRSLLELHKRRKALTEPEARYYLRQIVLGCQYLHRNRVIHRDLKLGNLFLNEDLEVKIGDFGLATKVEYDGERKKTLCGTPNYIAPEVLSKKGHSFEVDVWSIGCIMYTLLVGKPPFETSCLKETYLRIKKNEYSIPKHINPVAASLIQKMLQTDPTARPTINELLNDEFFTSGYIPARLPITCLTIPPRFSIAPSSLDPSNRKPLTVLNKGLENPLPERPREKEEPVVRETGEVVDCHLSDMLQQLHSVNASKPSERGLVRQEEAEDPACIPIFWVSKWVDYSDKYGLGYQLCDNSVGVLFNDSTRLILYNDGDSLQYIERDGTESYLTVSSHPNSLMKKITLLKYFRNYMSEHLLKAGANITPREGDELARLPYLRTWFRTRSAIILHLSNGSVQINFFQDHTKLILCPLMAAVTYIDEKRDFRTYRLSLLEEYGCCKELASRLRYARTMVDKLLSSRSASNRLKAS
Description for A-431: Cell cycle arrest in human A431 cells assessed as accumulation at G2/M phase after 24 hrs using propidium iodide staining by cell sorting method

By IC50 is commonly meant the concentration at which inhibition is half-maximal. Usually EC50 stands for the concentration needed to bring the measured effect to its halfway point. Higher therefore signals lower potency in that assay. As to `c1cnc(NCCc2ccncc2)c(-c2nnc(Nc3ccc4c(c3)OCO4)o2)c1`, the IC50 in data set [1], in data set [2] and in data set [3] was over 10 µM in each case. The compound also came in with an EC50 in the data set with A-431 of over 10 µM.
Take `c1cnc(NCc2ccc3c(c2)OCO3)c(-c2nnc(Nc3ccc4c(c3)OCCO4)o2)c1`: the figures for the IC50 in [1], in data set [2] and in [3] were over 10 µM, 2.6 µM and 0.71 µM, respectively.
For `c1cnc(NCc2ccncc2)c(-c2nnc(Nc3ccc4c(c3)OCO4)o2)c1`, in that order: over 10 µM, 1.89 µM and 1 µM.
As for `c1cnc(NCc2cnc[nH]2)c(-c2nnc(Nc3ccc4c(c3)OCCO4)o2)c1`, the IC50 turned out to be 0.83 µM in [1], 0.16 µM in [2] and 1.5 µM in data set [3]. The compound also yielded an EC50 in the data set with A-431 of 0.01 µM.
Take `c1ccc(-c2nnc(Nc3ccc4c(c3)OCCO4)o2)c(NCc2ccncc2)c1`: the inhibition result in data set [4], in data set [5] and in data set [6] was “Active” each time. For the same compound, the Activity result is “Toxic” with Mus musculus [7]; “Toxic” in the data set on Mus musculus [8]; 3.1% in the data set with Mus musculus [9]; 28% in [10]; “Non-toxic” in the data set with Mus musculus [11]; “Non-toxic” with Mus musculus [12]. This compound showed an MTD in data set [13] of 100 mg/kg. Also, the IC50 in data set [1] was 0.11 µM; in data set [2] it was 0.21 µM; in data set [3] it was 1.09 µM. A half-maximal response with A-431 (EC50) required 0.009 µM.
`c1ccc(-c2nnc(Nc3ccc4c(c3)OCCO4)[nH]2)c(NCc2ccc3ncccc3c2)c1`: the half-maximal inhibitory concentration (IC50) in data set [1], in data set [2] and in [3] was over 10 µM in each case. Further, the EC50 with A-431 was over 10 µM.
As to `c1ccc(CNc2ncccc2-c2nnc(Nc3ccc4c(c3)OCCO4)o2)nc1`, the IC50 in data set [1] was over 10 µM; in data set [2], over 10 µM; in data set [3], 1.9 µM.
Regarding `c1cnc(NCc2ccc3ncccc3c2)c(-c2nnc(Nc3ccc4c(c3)OCCO4)o2)c1`, the inhibition result in data set [4], in data set [5] and in [6] was “Active” each time. Besides, the IC50 in [1] stood at 0.22 µM; in data set [2], 0.3 µM; in [3], 1.45 µM. This compound yielded an EC50 in the data set on A-431 of 0.018 µM.
For `CC(=O)O[C@H]1C(=O)[C@@]2(C)[C@H]([C@H](OC(=O)c3ccccc3)[C@]3(O)C[C@H](OC(=O)[C@H](O)[C@@H](NC(=O)c4ccccc4)c4ccccc4)C(C)=C1C3(C)C)[C@]1(OC(C)=O)CO[C@@H]1C[C@@H]2O` [PACLITAXEL], the Activity entry in the data set on Mus musculus [14] is “Toxic”; with Mus musculus [15], “Toxic”; in the data set on Mus musculus [16] it was “Toxic”; in the data set on Mus musculus [9], 2.8%; with Mus musculus [17], “Toxic”; in data set [10] it was 78%.
For the compound `FC(F)(F)c1cccc(-c2nnc(-c3cccnc3NCc3ccncc3)[nH]2)c1`, the values for the IC50 in data set [1], in data set [2] and in data set [3] were 1 µM, 1.1 µM and over 10 µM, respectively. Also, the EC50 in the data set with A-431 is over 10 µM.
Turning to `c1cnc(NCc2ccc3c(c2)OCO3)c(-c2nnc(Nc3ccc4c(c3)OCO4)o2)c1`, the IC50 in [1] is over 10 µM; in data set [2] it was over 10 µM; in data set [3], 2.5 µM. A half-maximal effect in the data set with A-431 (EC50) was put at 0.52 µM.
Regarding `c1cnc(NCc2ccncc2)c(-c2nnc(Nc3ccc4c(c3)OCCO4)o2)c1`, the IC50 in data set [1] amounted to 1 µM; in data set [2] it was 0.17 µM; in [3], 0.5 µM.
`CS(=O)(=O)c1ccc(-c2nnc(-c3cccnc3NCC3COCCO3)[nH]2)cc1` (stereo unspecified): the concentration for half-maximal inhibition (IC50) in data set [1] was over 10 µM; in data set [2], 4.5 µM; in data set [3] it was 6.6 µM. Also, the EC50 in the data set with A-431 was over 10 µM.
Consider `c1ccc(-c2nnc(Nc3ccc4c(c3)OCCO4)[nH]2)c(NCc2ccc3[nH]ncc3c2)c1`, for which the IC50 in [1] is 7.3 µM; in data set [2], 3.1 µM; in data set [3] it was over 10 µM. In the data set with A-431, the EC50 is over 10 µM.
`FC1(F)Oc2ccc(Nc3nnc(-c4cccnc4NCc4ccncc4)o3)cc2O1`: the IC50 in [1] is over 10 µM; in data set [2], 3.16 µM; in [3], 3.9 µM. Also, in the data set on A-431, the EC50 is over 10 µM.
Consider `c1cnc(NCCc2ccncc2)c(-c2nnc(Nc3ccc4c(c3)OCCO4)o2)c1`, for which the IC50 in [1], in data set [2] and in [3] was over 10 µM each time. In the data set on A-431, this compound had an EC50 of over 10 µM.
Take `c1cnc(NCc2ccc3[nH]ncc3c2)c(-c2nnc(Nc3ccc4c(c3)OCCO4)o2)c1`: the IC50 in [1] is over 10 µM; in data set [2], 1.4 µM; in [3], 1.25 µM. This compound came in with an EC50 in the data set on A-431 of 0.034 µM.
For `c1ccc(-c2nnc(Nc3ccc4c(c3)OCO4)o2)c(NCc2ccncc2)c1`, in that order: over 10 µM, 0.83 µM, 0.69 µM and 0.62 µM.
The matching figures for `FC(F)(F)c1cccc(-c2nnc(-c3cccnc3NCc3ccncc3)o2)c1`: over 10 µM, 2.5 µM, over 10 µM and over 10 µM.
As for `c1cncc(CNc2ncccc2-c2nnc(Nc3ccc4c(c3)OCO4)o2)c1`, the figures for the IC50 in [1], in data set [2] and in [3] were over 10 µM, over 10 µM and 8.8 µM, respectively.
Consider `c1cncc(CNc2ncccc2-c2nnc(Nc3ccc4c(c3)OCCO4)o2)c1`, for which the IC50 is over 10 µM in data set [1], over 10 µM in [2] and 0.7 µM in data set [3].
Take `c1cncc(CCNc2ncccc2-c2nnc(Nc3ccc4c(c3)OCCO4)o2)c1`: the IC50 in data set [1], in data set [2] and in [3] was over 10 µM in each case. Moreover, the EC50 in the data set with A-431 was over 10 µM.
`c1ccc(CNc2ncccc2-c2nnc(Nc3ccc4c(c3)OCO4)o2)nc1`: the IC50 in data set [1] is over 10 µM; in data set [2] it was over 10 µM; in data set [3], 1.7 µM.
As for `c1ccc(-c2nnc(Nc3ccc4c(c3)OCCO4)[nH]2)c(NCc2cnc[nH]2)c1`, the IC50 is over 10 µM in [1], 4.6 µM in data set [2] and over 10 µM in data set [3]. The compound also returned an EC50 in the data set with A-431 of over 10 µM.
For the compound `c1ccc(-c2nnc(Nc3ccc4c(c3)OCCO4)[nH]2)c(NCc2ccncc2)c1`, the IC50 is over 10 µM in [1], 5.1 µM in data set [2] and 8.1 µM in data set [3]. A half-maximal effect in the data set on A-431 (EC50) was put at 0.049 µM.
The matching figures for `c1cncc(CCNc2ncccc2-c2nnc(Nc3ccc4c(c3)OCO4)o2)c1`: over 10 µM, 3.41 µM, 1.7 µM and over 10 µM.
For `c1cncc(CNc2ccccc2-c2nnc(Nc3ccc4c(c3)OCCO4)[nH]2)c1`, in that order: 2.8 µM, 3.2 µM, over 10 µM and over 10 µM.
